Read-outs that look alike come from different tables or passages of the source.
Legend:
[1] = system: Human Herpesvirus type 1 (HHV-1); test: End-point titration technique (EPTT), anti-herpetic screening on infected Vero cells; type: cell-based; details: for minimal effective concentration: Human alphaherpesvirus 1, 1 TCID50, 48 h, tested 6.25-50 µg/mL, read-out: 1 TCID50: non-toxic concentration that showed viral reduction factor, HHV-1
Protocol: (§1) The in vitro antiviral evaluation of the 27 substances against Human Herpesvirus type 1 (HHV-1) and 2 (HHV-2) was made on infected Vero cells, using the end-point titration technique (EPTT).
(§2) The antiviral activity of molecules against 1 and 10 Cell Culture Infectious Dose 50% (10TCID50) of HHV-1 and HHV-2, respectively, was determined using end-point titration technique (EPTT). Vero cells grown in 96-well plates at a density of 2.0 × 10^4 cells/well were incubated at 37 °C in 5% CO2 atmosphere until constitute 80% of cell monolayer. Then, viral suspensions of HHV-1 or HHV-2 with concentrations of 6.25 µg/mL to 50 µg/mL of compounds were performed in DMEM supplemented with 2% FBS containing 1% and 0.5% carboxymethylcellulose (CMC) for HHV-1 and HHV-2, respectively. Mixture was incubated during 15 minutes at room temperature and was added to the cell monolayer. After 48 h of incubation at 37 °C (5% CO2), the cytopathic effect was examined, the microplates were fixed with 3.5% formaldehyde and stained with 0.2% crystal violet. Two independent experiments by quadruplicate for each viral serotype and each were carried out. Positive controls, such as dextran sulfate (DS) and acyclovir (A) for early stages and late stages of infection, respectively, were included.

Vero = test: MTT cytotoxicity assay, non-tumor cells; type: cell-based, Cercopithecus aethiops; details: Chlorocebus sabaeus
Protocol: The in vitro cytotoxicity evaluation of quinones was performed using the 3-(4,5 dimethylthiazol-2-yl)-2,5-diphenyltetrazolium bromide (MTT, Sigma, Cream Ridge, NJ, USA) assay as described by Betancur-Galvis et al. 2002 [22]. Briefly, Vero and HeLa cell lines were seeded at 2.0 × 10^3 cells per well of 96-well plates in DMEM supplemented with 10% of inactivated FBS, and were incubated for 24 h at 37 °C, 5% CO2. Then, each diluted molecule was added to the cells and incubated for further 48 h at 37 °C, 5% CO2. Jurkat cell line at 3 × 10^3 cells per well in a 96-well round-bottomed plate and diluted substances in RPMI-1640 medium (Sigma) supplemented with 10% FBS were plated simultaneously. After 48 h of treatment at 37 °C, 5% CO2, the media was carefully removed and 28 µL of MTT solution (4 mg/mL) was added to each well, and the plates were incubated for 2 h at 37 °C, 5% CO2. The DMSO was then added to dissolve the formed formazan crystals and absorbance was determined spectrophotometrically at 570 nm.
The minimal dilution of compound that caused 50% inhibition of the cells (IC50) was calculated by linear regression analysis of the dose-response curves generated from the absorbance data with the statistical GraphPad Prisma 5.0. IC50 values were expressed as the mean ± standard deviation (M ± SD) of two independent experiments done in quadruplicate.

HHV-2 = test: Plaque reduction assay, simultaneous and post-infection treatment, Vero cells; type: cell-based, Human Herpesvirus 2; details: post-infective stages, acyclovir 1.5 µg/mL
Protocol: (§3) To define the stage of the viral replicative cycle where NQ 4 exerts its action, simultaneous and post-infection treatments against HHV-1 and HHV-2 were performed. […] First, we determined the inhibitory concentration 50% (IC50) for the compound and drug positive controls on infected cells and their effects on non-tumoral Vero cells, to define the concentration of evaluation and to calculate the antiviral selectivity index (SI). Then, the concentration of NQ 4 that reduced the number of viral plaques by 50% (EC50) was determined from the dose-response curves.
(§4) The potential antiviral mechanism of NQ 4 was evaluated by the plaque reduction assay as previously described by us. Vero cell monolayers grown in 24-well plates were infected with 100 PFU/well of each virus. For simultaneous treatment, the compound and the virus were added simultaneously to the cell monolayers and incubated for 1 h at 37 °C (5% CO2). Then, cells were washed with phosphate buffered saline (PBS, pH = 7.0) and CMC at 1% and 0.75% was added for HHV-1 and HHV-2, respectively. In post-infection treatment, virus was added to cell monolayer and incubated for 1 h at 37 °C (5% CO2). After incubation, washing was performed with PBS and molecule previously prepared in CMC 1% and 0.75% for HHV-1 and HHV-2 respectively, was added. In both treatments, NQ 4 was prepared at concentrations from 0.4 µg/mL to 3.1 µg/mL and the cell monolayers allowed to incubate for 72 h. Subsequently, cells were fixed and stained with a solution of 3.5% formaldehyde with 0.2% crystal violet, and the viral plaques were counted. Dextran sulfate (DS) was included as positive control in simultaneous assay and acyclovir (A) was the positive control in after infection treatment.

HHV-1 = test: as above; type: cell-based, Human Herpesvirus 1; details: post-infective stages, acyclovir 1.5 µg/mL
Protocol: as §3, §4

[2] = system: Human Herpesvirus type 2 (HHV-2); test: End-point titration technique (EPTT), anti-herpetic screening on infected Vero cells; type: cell-based, Human Herpesvirus 2; details: for Rf (reduction factor of the viral titer), HHV-2: 10 TCID50, 48 h; for minimal effective concentration: Human alphaherpesvirus 2, 10 TCID50, 48 h, tested 6.25-50 µg/mL, read-out: 10 TCID50: non-toxic concentration that showed viral reduction factor, HHV-2
Protocol: as §1, §2

Jurkat = test: MTT cytotoxicity assay; type: cell-based; details: Homo sapiens, Jurkat ATCC TIB-152, 48 h, read-out: IC50 ± SD, Jurkat
Protocol: (§5) Then, each diluted molecule was added to the cells and incubated for further 48 h at 37 °C, 5% CO2. […] The DMSO was then added to dissolve the formed formazan crystals and absorbance was determined spectrophotometrically at 570 nm. […] IC50 values were expressed as the mean ± standard deviation (M ± SD) of two independent experiments done in quadruplicate.

HeLa = test: MTT cytotoxicity assay; type: cell-based; details: Homo sapiens, HeLa ATCC CRL-1958, 48 h, read-out: IC50 ± SD, HeLa
Protocol: as §5

DENV-2 = system: DENV-2; design: method as in PMID 20837762; details: low concentrations; cited from earlier work
[3] = Vero ATCC CCL-81, 48 h, MTT, read-out: IC50 ± SD, Vero

| Structure (SMILES) | Rf (reduction factor of the viral titer), HHV-1 ([1]; 1 TCID50, 48 h) | minimal effective concentration [1] | IC50 (Vero; non-tumoral Vero cells, data not shown, read-out: IC50 on Vero cells) | Antiviral activity in post-infection treatment, HHV-2 (HHV-2) | Antiviral activity in post-infection treatment, HHV-1 (HHV-1) | Rf (reduction factor of the viral titer), HHV-2 [2] | minimal effective concentration [2] | IC50 (Vero; [3]) | IC50 (Jurkat) | IC50 (HeLa) | Rf (reduction factor of the viral titer), HHV-2 ([2]; listed as 12) | Activity against DENV-2 at very early stages of the viral replication cycle (DENV-2) |
| --- | --- | --- | --- | --- | --- | --- | --- | --- | --- | --- | --- | --- |
| Nc1nc2c(ncn2COCCO)c(=O)[nH]1 [A, Acyclovir, reference compound] | 10^4 | 1.5 µg/mL | > 400 µg/mL | active | active | 10^4 | 1.5 µg/mL |  |  |  |  |  |
| CC1(C)CCCc2cc3c(cc21)C(=O)C(Cl)=C(Cl)C3=O [AQ 12] |  | > 50 µg/mL |  |  |  | 1 × 10^2 | 25 µg/mL | 136 ± 4.4 µM | 27.5 ± 0.6 µM | 38.5 ± 1.2 µM | 10^2 |  |
| COc1cccc2c1C(=O)c1c(O)c3c(c(O)c1C2=O)C[C@@](O)(C(=O)CO)C[C@@H]3O[C@H]1C[C@H](N)[C@H](O)[C@H](C)O1 [Doxorubicin, doxorubicin, reference compound] |  |  |  |  |  |  |  | 2 ± 0.1 µM | 0.1 ± 0.01 µM | 0.9 ± 0.1 µM |  | active |
| Cc1ccc2[nH]c3c(c2c1)C(=O)c1ccc(CCCC(C)C)cc1C3=O [HetQ 19] |  |  |  |  |  |  |  | 212 ± 8.6 µM | > 72.4 µM | 77 ± 1.9 µM |  |  |
| Cc1cc(C)c2c3c(oc2c1)C(=O)c1cc(CCCC(C)C)ccc1C3=O [HetQ 20] |  |  |  |  |  |  |  | 153 ± 4.5 µM | 42.2 ± 0.7 µM | > 69.3 µM |  |  |
| Cc1c2c(nc3ccccc13)C(=O)c1cc(CCCC(C)C)ccc1C2=O [HetQ 21] |  |  |  |  |  |  |  |  | > 69.9 µM | > 69.9 µM |  |  |

Source: publication PMC6479402, “Anti-Herpetic, Anti-Dengue and Antineoplastic Activities of Simple and Heterocycle-Fused Derivatives of Terpenyl-1,4-Naphthoquinone and 1,4-Anthraquinone” (Molecules, 2019)
